Measurements taken from patent publication US12370161B2, “Composition for treating atopy or pruritus comprising N-acetyl or N-acyl amino acid” (STEMDR INC., priority 2017, dated 2025).
“Also recorded” adds a separate entry of the source.

Columns and labels:
[1] = system: interferon γ; test: Interferon γ mRNA in skin tissue by quantitative real-time PCR, Balb/c; type: in vivo, mouse; details: atopy-induced Balb/c mice, normalized to β-actin
Experimental: (§1) After isolating total RNA from the atopy-induced skin tissue using 500 μL of Trizol (Life Technologies, USA) according to the manufacturer's protocol and synthesizing cDNA using the Superscript III reverse transcriptase (Life Technologies, USA), real-time PCR was conducted by reacting with the primers of IL4 and interferon γ to be analyzed. The real-time PCR was conducted on a StepOne Plus PCR cycler (Applied Biosystems) using SYBR Green (Applied Biosystems, Foster City, CA). The mRNA expression data were analyzed by the ΔΔCT method and were normalized to β-actin for gene detection. The primers necessary for the real-time PCR were purchased from Qiagen (USA). […] IL4 is known to induce TH2 response and interferon γ is known to induce TH1 response.

[2] = system: pruritus caused by atopic contact dermatitis; test: Pruritus inhibition test, pruritus induced with DNFB; type: in vivo, mouse; details: 0.1% in physiological saline applied once onto right ear; pruritus measured for 1 hour
Experimental: In order to investigate whether L-form, LID-form and D-form N-acetylalanine, N-acetylarginine, N-acetylthreonine and N-acetyltryptophan inhibit pruritus caused by atopic contact dermatitis, 20 μL of 0.1% 2,4-dinitrofluorobenzene (DNFB) solution and 0.1% N-acetylamino acid dissolved in physiological saline were applied once onto the right ear 10 minutes after the final treatment (day 27) with 2,4-dinitrofluorobenzene (DNFB) (Physiological saline was applied to a negative control group), and then pruritus was measured for 1 hour. FIG. 7 compares the pruritus-relieving effect of L-form N-acetylalanine, N-acetylthreonine, N-acetylarginine and N-acetyltryptophan with D/L-form and D-form N-acetylalanine and N-acetyltryptophan at 0.1% after the induction of pruritus with DNFB.

[3] = system: atopic dermatitis-induced Balb/c mouse; test: SCORAD clinical skin score, DNFB-induced atopic dermatitis in Balb/c mouse; type: in vivo; set-up: key to Mouse 1 Sum / Mean (of Sum, SCORAD) / Mouse 2 Sum / Mouse 3 Sum: sum of symptom grades, each 0 (none) to 3 (severe); details: for skin-soothing and atopic dermatitis-treating effect (SCORAD, Table 1, FIG. 2A): Balb/c atopic dermatitis model, 0.1% topical, P<0.05 versus DNFB group; for apparent degree of dermatitis (back skin images, FIG. 2B): Balb/c, treated for 7 days, day 29; for Mouse 1 Erythema / Mouse 1 Abrasion / Mouse 1 Dryness / Mouse 1 Edema / Mouse 1 Eschar / Mouse 1 Lichenification / Mouse 1 Sum / Mouse 2 Abrasion / Mouse 2 Dryness / Mouse 2 Edema / Mouse 2 Erythema / Mouse 2 Eschar / Mouse 2 Lichenification / Mouse 2 Sum / Mouse 3 Abrasion / Mouse 3 Dryness / Mouse 3 Edema / Mouse 3 Erythema / Mouse 3 Eschar / Mouse 3 Lichenification / Mouse 3 Sum / Mean (of Sum, SCORAD): DNFB Balb/c; for Mouse 1 Erythema: 0.1% in PBS, 200 μL on back skin daily day 22-28, grade 0-3 (0 no symptom, 1 mild, 2 moderate, 3 severe); for Mouse 1 Abrasion / Mouse 1 Dryness / Mouse 1 Edema / Mouse 1 Eschar / Mouse 1 Lichenification / Mouse 1 Sum / Mouse 2 Abrasion / Mouse 2 Dryness / Mouse 2 Edema / Mouse 2 Erythema / Mouse 2 Eschar / Mouse 2 Lichenification / Mouse 2 Sum / Mouse 3 Abrasion / Mouse 3 Dryness / Mouse 3 Edema / Mouse 3 Erythema / Mouse 3 Eschar / Mouse 3 Lichenification / Mouse 3 Sum / Mean (of Sum, SCORAD): 0.1% topical day 22-28; for Mouse 1 Abrasion / Mouse 1 Dryness / Mouse 1 Edema / Mouse 1 Eschar / Mouse 1 Lichenification / Mouse 2 Abrasion / Mouse 2 Dryness / Mouse 2 Edema / Mouse 2 Erythema / Mouse 2 Eschar / Mouse 2 Lichenification / Mouse 3 Abrasion / Mouse 3 Dryness / Mouse 3 Edema / Mouse 3 Erythema / Mouse 3 Eschar / Mouse 3 Lichenification: grade 0-3; for Mouse 1 Sum / Mouse 2 Sum / Mouse 3 Sum: overall dermatitis score, sum of individual scores; for Mean (of Sum, SCORAD): mean of 3 mice
Experimental: In order to induce atopy-like dermatitis in Balb/c mice, DNFB sensitization was induced by applying 100 μL of 0.35% 2,4-dinitrofluorobenzene (DNFB) (Sigma, USA) in acetone/olive oil (3:1) on the shaved back skin of the mice. Then, dermatitis was induced by applying 100 μL of 0.25% DNFB on days 6, 9, 12, 15, 18 21, 24 and 27 on the shaved back skin. Control mice were treated with a vehicle of the same volume (FIG. 1A).
After dissolving an N-acetyl or N-acylamino acid in phosphate-buffered saline to 0.1%, 200 μL of the solution was applied on the back skin of the mice every day, from day 22 until day 28 for the Balb/c atopic dermatitis model, and from day 15 until day 21 for the Nc/Nga atopic dermatitis model. When the N-acetyl or N-acylamino acid was treated together with DNFB, they were treated with 12-hour intervals in order to avoid direct reaction between the DNFB and the N-acetyl or N-acylamino acid. A non-treated group and a 2,4-dinitrofluorobenzene (DNFB) group were treated with phosphate-buffered saline of the same volume (FIGS. 1A-1B). As the N-acetylamino acid, products purchased from Sigma-Aldrich (USA), MP scientific (USA), TCI (Tokyo Chemical Industry, Japan), Santacruz (USA), etc. were used without purification.
The degree of skin soothing and the severity of atopic dermatitis were evaluated macroscopically according to the previously established SCORAD (SCORing Atopic Dermatitis) method (Oranje et al., 2007). The degree of symptoms such as edema, erythema, eschar, dryness, abrasion, lichenification, etc. was graded from 0 to 3 (0, no symptom; 1, mild; 2, moderate; 3, severe). The overall dermatitis score was determined from the sum of all individual scores (Table 1). The assessment was performed by an investigator who was blind to the grouping of the mice.

[4] = system: IL4; test: IL4 mRNA in skin tissue by quantitative real-time PCR, Balb/c; type: in vivo, mouse; details: atopy-induced Balb/c mice, normalized to β-actin
Experimental: as §1

[5] = system: IgE; test: Serum IgE level by ELISA, Balb/c; type: in vivo, mouse; details: atopy-induced Balb/c mice
Experimental: After treatment with the test substance, the mice were sacrificed and blood was taken from the heart. After isolating serum from the blood, IgE level was measured. Specifically, after attaching antibodies diluted in a buffer solution onto a 96-well plate and incubating overnight at 4° C., experiment was conducted using an IgE ELISA kit (BD Biosciences, San Diego, CA) according to the provided manual. The quantity of the IgE protein was determined by measuring absorbance at 450 nm using a microplate reader.

CC(=O)N[C@@H](CCCNC(=N)N)C(=O)O [N-acetyl-L-arginine]
level of interferon γ in the skin tissue (FIG. 5A) [1]: significantly decreased
pruritus-relieving effect (FIG. 7) [2]: significantly inhibited pruritus
skin-soothing and atopic dermatitis-treating effect (SCORAD, Table 1, FIG. 2A) [3]: significant skin-soothing and atopic dermatitis-treating effects; also recorded: significant atopic dermatitis-treating effect
apparent degree of dermatitis (back skin images, FIG. 2B) [3]: decreased remarkably
Mouse 1 Erythema [3]: 1
Mouse 1 Abrasion [3]: 1
Mouse 1 Dryness [3]: 1
Mouse 1 Edema [3]: 1
Mouse 1 Eschar [3]: 1
Mouse 1 Lichenification [3]: 1
Mouse 1 Sum [3]: 6
Mouse 2 Abrasion [3]: 1
Mouse 2 Dryness [3]: 1
Mouse 2 Edema [3]: 1
Mouse 2 Erythema [3]: 1
Mouse 2 Eschar [3]: 1
Mouse 2 Lichenification [3]: 1
Mouse 2 Sum [3]: 6
Mouse 3 Abrasion [3]: 0
Mouse 3 Dryness [3]: 1
Mouse 3 Edema [3]: 1
Mouse 3 Erythema [3]: 1
Mouse 3 Eschar [3]: 1
Mouse 3 Lichenification [3]: 1
Mouse 3 Sum [3]: 5
Mean (of Sum, SCORAD) [3]: 5.67
level of IL4 in the skin tissue (FIG. 5A) [4]: significantly decreased
serum IgE level (FIG. 4A) [5]: significant decrease

CC(=O)N[C@@H](CS)C(=O)O [N-acetyl-L-cysteine, reference compound]
level of interferon γ in the skin tissue (FIG. 5A) [1]: significantly decreased
skin-soothing and atopic dermatitis-treating effect (SCORAD, Table 1, FIG. 2A) [3]: significant skin-soothing and atopic dermatitis-treating effects; also recorded: significant atopic dermatitis-treating effect
apparent degree of dermatitis (back skin images, FIG. 2B) [3]: decreased remarkably
Mouse 1 Erythema [3]: 2
Mouse 1 Abrasion [3]: 2
Mouse 1 Dryness [3]: 2
Mouse 1 Edema [3]: 2
Mouse 1 Eschar [3]: 2
Mouse 1 Lichenification [3]: 3
Mouse 1 Sum [3]: 13
Mouse 2 Abrasion [3]: 2
Mouse 2 Dryness [3]: 3
Mouse 2 Edema [3]: 1
Mouse 2 Erythema [3]: 2
Mouse 2 Eschar [3]: 2
Mouse 2 Lichenification [3]: 3
Mouse 2 Sum [3]: 13
Mouse 3 Abrasion [3]: 2
Mouse 3 Dryness [3]: 2
Mouse 3 Edema [3]: 2
Mouse 3 Erythema [3]: 1
Mouse 3 Eschar [3]: 2
Mouse 3 Lichenification [3]: 2
Mouse 3 Sum [3]: 11
Mean (of Sum, SCORAD) [3]: 12.33
level of IL4 in the skin tissue (FIG. 5A) [4]: significantly decreased
serum IgE level (FIG. 4A) [5]: significant decrease

CC(=O)N[C@H](C(=O)O)[C@@H](C)O [N-acetyl-L-threonine]
level of interferon γ in the skin tissue (FIG. 5A) [1]: significantly decreased
pruritus-relieving effect (FIG. 7) [2]: significantly inhibited pruritus
skin-soothing and atopic dermatitis-treating effect (SCORAD, Table 1, FIG. 2A) [3]: significant skin-soothing and atopic dermatitis-treating effects; also recorded: significant atopic dermatitis-treating effect
apparent degree of dermatitis (back skin images, FIG. 2B) [3]: decreased remarkably
Mouse 1 Erythema [3]: 1
Mouse 1 Abrasion [3]: 1
Mouse 1 Dryness [3]: 2
Mouse 1 Edema [3]: 1
Mouse 1 Eschar [3]: 1
Mouse 1 Lichenification [3]: 1
Mouse 1 Sum [3]: 7
Mouse 2 Abrasion [3]: 1
Mouse 2 Dryness [3]: 0
Mouse 2 Edema [3]: 1
Mouse 2 Erythema [3]: 1
Mouse 2 Eschar [3]: 1
Mouse 2 Lichenification [3]: 1
Mouse 2 Sum [3]: 5
Mouse 3 Abrasion [3]: 0
Mouse 3 Dryness [3]: 1
Mouse 3 Edema [3]: 1
Mouse 3 Erythema [3]: 1
Mouse 3 Eschar [3]: 2
Mouse 3 Lichenification [3]: 1
Mouse 3 Sum [3]: 6
Mean (of Sum, SCORAD) [3]: 6
level of IL4 in the skin tissue (FIG. 5A) [4]: significantly decreased
serum IgE level (FIG. 4A) [5]: significant decrease
